Tested on: Leishmania donovani
Assay: Bioassay against Leishmania donovani
Format: cell-based
Excerpt: Marine invertebrates from Antarctica have been investigated for their potential natural product chemistry. Often sessile, these organisms must develop chemical protective mechanisms to survive and defend themselves against predators. The biodiversity of these organisms is of particular interest due to the extremely low temperatures and the circumpolar current around the Antarctic continent serving as an ecological isolating shield. The chemodiversity that emanates from these organisms can be a significant source of chemistry to be further developed into new drugs. The chemical investigation of an undescribed Gersemia sp. Antarctic coral has led to the isolation of two different kinds of bioactive compounds. After lyophilization of the organism, two different extractions were performed: the first one used a methylene chloride: methanol (1:1) solvent mixture, and the second one used methylene chloride only as solvent in a Soxhlet extraction. […] One and two-dimensional nuclear magnetic resonance, mass spectrometry, X-ray crystallography, and circular dichroism were the methods performed to elucidate and confirm the structures. Furthermore, biological testing against Leishmania sp. and ESKAPE pathogens, Zika virus, Clostridium difficile, and HeLa cancer cells were performed.
Table 1 details the bioactivity of two Alcyopterosins and ACDL-21.

## Cc1cc2c(c3c1[C@H](CO[N+](=O)[O-])OC3=O)CC(C)(C)C2 [Alcyopterosin E (2), alcyopterosin E]
  IC50: 3.1 µM

Reference: patent US10898460B1, “Leishmania inhibitors” (University of South Florida, priority 2018, dated 2021)
